Key:
[1] = system: Hennes-20 cells; assay: Hennes-20 oncology screen; type: cell-based; details: 72 h, alamar Blue
Experimental: To screen compounds for oncology activity Hennes-20 cells were plated at low (500 cells/well) versus high (15,000 cells/well) densities and treated with DMSO (vehicle) or dose-titration of compounds. The rationale for this screen is that an intrinsically toxic compound should kill cells regardless of density, including in Hennes-20 cells. However, a compound that selectively triggers the arrest of proliferation will inhibit cell growth when plated at a low density will appear cytotoxic due to inhibition of cell growth when plated at a low density but will appear non-toxic to cells plated at a high density where the cells are approaching confluence and the readout detected by a cell viability assay is already close to the maximum.
To conduct the Hennes-20 screen, two 96 well plates were seeded with Hennes 20 cells in parallel where one was plated at a density of 500 cells/well and the other was plated at a density of 15,000 cells/well. 90 uL of minimum essential media was added to each well and plates were placed in a 37 degrees Celsius incubator for 24 hours. The next day, 10 ul of media containing dilutions of compound in DMSO were added to each plate. Six wells on each plate received 10 ul of media containing only DMSO. Each well was gently mixed 5 times with a 100 ul pipette. Plates were incubated at 37 degrees Celsius for 72 hours and then 10 uL of alamar Blue was added to each well. Wells were mixed 5 times then incubated at 37 degrees Celsius for […]. Plates were then read at 530/590.
The rationale for the screen is as follows: Hennes-20 cells lack endogenous apoptosis. Cells plated at low density will proliferate and approach confluence in 72 hrs. A drug that arrests proliferation may have its proliferation blocking effect masked by the triggering of endogenous apoptosis. However, in the Hennes line, lacking endogenous apoptosis, such an arrest is manifest as a dose-dependent maintenance at low cell density. Since the high-density cells are plated close to confluence, the difference between Alamar Blue cell survival readings after 72 hrs reflects the ability of the drug to block proliferation in the low density-plated cells. In the high density-plated cells any diminution of Alamar Blue readout vs vehicle control is due to intrinsic toxicity, not proliferation arrest, since cells were already at confluence. Thus, a compound that appears toxic (low Alamar Blue readings after 72 hrs) on the low-density plate, but which appears non-toxic (high Alamar Blue readings after 72 hrs) on the high-density plate, must be arresting proliferation, since intrinsic compound toxicity should be observed at both low and high cell densities, not selectively on the low-density plate.

[2] = system: VACV-LUC virus; assay: microbe, parasite or virus in culture; type: cell-based; details: Orthopoxvirus vaccinia, HeLa, 2 h
[3] = system: E. coli ATCC25922; assay: MIC assay, serial dilution; details: for MIC: Escherichia coli, ATCC25922, read-out: Anti-bacterial Activity (E. coli MIC (uM)), E. coli, Table 5
[4] = system: NL4-3 Rluc virus; assay: microbe, parasite or virus in culture; type: cell-based, HIV; details: MT-2 cells, MOI 0.02, 96 hours
[5] = system: RABV ERA strain; assay: organism not typed; type: cell-based
[6] = Human immunodeficiency virus 1, NL43, MT2, 96 h

`CCc1cc(N2CCCCCC2)cc2[s+]c3cc(N(C)C4CCNCC4)cc(CC)c3nc12` [Compound 77] was tested, and the EC50 [1] was < 2500 nM, the EC50 [2] was 1670 nM and the MIC [3] was 3.1 µM.
For `CCc1cc(N2CCCC2)cc2[s+]c3cc(N(C)C)cc(C(C)C)c3nc12` [Compound 73], the EC50 [1] was 500 nM, the EC50 [4, 6] was 1.8 nM and the EC50 [2] was 1670 nM. The EC50 [5] was < 500 nM and the MIC [3] was 100 µM.
`c1cc2nc3ccc(N4CCCC4)cc3[s+]c2cc1N1CCCC1` [Compound 68] was tested, and the EC50 [1] was < 500 nM, the EC50 [4, 6] was 42 nM and the EC50 [2] was < 560 nM. It also gave an MIC [3] of 6.3 µM.
In the case of `CCc1cc(N(C)C)cc2[s+]c3cc(N4CCCNCC4)cc(CC)c3nc12` [Compound 83], the EC50 [1] is reported as < 12500 nM, the EC50 [4] is reported as 270 nM and the EC50 [2] is reported as 1670 nM. The EC50 [5] was < 500 nM and the MIC [3] was 100 µM.
For `CCc1cc(N2CCCC2)cc2[s+]c3cc(N4CCCC4)cc(C(C)C)c3nc12` [Compound 46], the EC50 [1] was < 500 nM, the EC50 [4, 6] was 3 nM and the EC50 [5] was < 5 nM. The “Anti-bacterial Activity (E. coli MIC (uM))” value ([3]; E. coli, Table 5) was 3.1 µM.
`CCc1cc(N(C)C)cc2[s+]c3cc(N4CCCC4)cc(CC)c3nc12` [Compound 36] was tested, and the EC50 [1] was < 500 nM, the EC50 [4, 6] was 7.6 nM and the EC50 [2] was < 1670 nM. For the same compound, the MIC [3] was 1.6 µM.
In the case of `CN(C)c1ccc2nc3c(C(C)(C)C)cc(N(C)C)cc3[s+]c2c1` [Compound 66], the EC50 [1] is reported as < 500 nM and the EC50 [2] is reported as 1670 nM.
In the case of `CCc1cc(N2CCCC2)cc2[s+]c3cc(N4CCCC4)cc(C)c3nc12` [Compound 45], the EC50 [1] is reported as < 2500 nM, the EC50 [4, 6] is reported as 3.1 nM and the EC50 [2] is reported as < 1670 nM. It also gave an MIC [3] of 0.8 µM.

From US20240300940A1, “Phenothiazinyl Compounds and Uses” (Prosetta Biosciences, Inc., priority 2023, published 2024)
